Measured values reported in patent US8735588B2, “Nematocidal sulfonamides” (E I Du Pont De Nemours and Company, priority 2009, dated 2014).

Molecule `CCn1cc(S(=O)(=O)NC(=O)c2cn3cc(C(F)(F)F)cc(Cl)c3n2)c(C)n1` [Compound 357, 8-chloro-N-[(1-ethyl-3-methyl-1H-pyrazol-4-yl)sulfonyl]-6-(trifluoromethyl)-imidazo[1,2-a]pyridine-2-carboxamide] has a melting point of 251 to 252 °C. For `CCc1ccc(Cl)c(S(=O)(=O)NC(=O)c2cn3cc(C(F)(F)F)cc(Cl)c3n2)c1` [Compound 356, 8-chloro-N-[(2-chloro-5-ethylphenyl)sulfonyl]-6-(trifluoromethyl)imidazo[1,2-a]pyridine-2-carboxamide], the melting point was > 250 °C. For `COc1ccc(Cl)c(S(=O)(=O)[N-]C(=O)c2cn3cc(C(F)(F)F)cc(Cl)c3n2)c1.[Na+]` [Compound 478], the melting point was > 250 °C. `Cc1cc(S(=O)(=O)NC(=O)c2cn3cc(C(F)(F)F)cc(Cl)c3n2)c(C)cc1C#N` [Compound 19, 8-chloro-N-[(4-cyano-2,5-dimethylphenyl)sulfonyl]-6-(trifluoromethyl)imidazo[1,2-a]pyridine-2-carboxamide] showed a melting point of 244 to 245 °C. With `Cc1cc(S(=O)(=O)NC(=O)c2cn3cc(C(F)(F)F)cc(Cl)c3n2)c(C)cc1C#N` [Compound 479] the melting point was 185 to 186 °C. With `Cc1cc(S(=O)(=O)[N-]C(=O)c2cn3cc(C(F)(F)F)cc(Cl)c3n2)c(C)cc1C#N.[Na+]` [Compound 477] the melting point was > 250 °C.
